In publication PMC2248166, “Quantitative peptide binding motifs for 19 human and mouse MHC class I molecules derived using positional scanning combinatorial peptide libraries” (Immunome Research, 2008):
pIC50: −log10 of the molar value. Where a SMILES comes first, the peptide text is derived from it.

Columns and labels:
Assay in all cases: biochemical
Assay type in all cases: binding
[1] = biological target: HLA B*1501 (Homo sapiens, UniProt P01889, A329T/A93T/A95T/C349S/D201E/D98Y/E187L/E204Q/E69M/E70A/K202T/N87E/Q94N/R155S/R180W/S121R/S35A/S48A/V306I/V36M/Y140S/Y91S)
[2] = biological target: HLA B*1503 (Homo sapiens, UniProt P01889, A329T/A93T/A95T/C349S/D201E/D98Y/E187L/E204Q/K202T/N87E/Q94N/R155S/R180L/S121R/S35A/V306I/V36M/Y140S/Y91S)
[3] = biological target: HLA A*3001 (Homo sapiens, UniProt P04439, D140H/D185E/E176W/F33S/G80R/H175R/K168Q/R138E/R41S)
HLA A*3001, sequence (P04439 25-365 limits assumed, stated change not applied): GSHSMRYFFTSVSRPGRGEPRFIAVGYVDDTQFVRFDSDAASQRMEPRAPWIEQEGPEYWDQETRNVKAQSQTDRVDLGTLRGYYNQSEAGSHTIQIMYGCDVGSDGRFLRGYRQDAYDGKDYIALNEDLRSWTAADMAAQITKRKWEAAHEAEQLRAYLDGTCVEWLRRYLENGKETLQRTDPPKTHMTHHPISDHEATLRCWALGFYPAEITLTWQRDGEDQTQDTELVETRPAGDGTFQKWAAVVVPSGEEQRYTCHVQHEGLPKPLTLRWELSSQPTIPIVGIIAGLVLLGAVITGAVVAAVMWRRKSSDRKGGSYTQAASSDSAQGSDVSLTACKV

[4] = biological target: HLA A*3201 (Homo sapiens, UniProt P04439, A270S/D101S/D185E/E176V/E277Q/F133L/G103R/G107R/G231S/H175R/I121M/I218V/I322F/K168Q/L105A/L300P/L318F/M331R/P208A/P217A/Q94H/R106L/R138Q/S129P/T104I/T323A/T345S/V100E/V321M/V358M)
[5] = biological target: HLA B*0801 (Homo sapiens, UniProt P01889, A93T/A95T/D138N/E176V/E187T/K202T/Q94N/R180D/S35A/V36M/Y33D/Y91F)

Q: What does the source list for `CC[C@H](C)[C@H](N)C(=O)N[C@H](C(=O)N[C@@H](CC(C)C)C(=O)N[C@H](C(=O)N[C@@H](CC(N)=O)C(=O)N[C@H](C(=O)N[C@H](C(=O)N[C@@H](CC(N)=O)C(=O)N[C@H](C(=O)O)[C@@H](C)CC)C(C)C)C(C)C)[C@@H](C)O)[C@@H](C)O` [3102.0320] (H-ITLTNVVNI-OH)?
A: pIC50 [1]: 7.92; pIC50 [2]: 7.66; pIC50 [3]: 7.46; pIC50 [4]: 7.11

Q: With `CC[C@H](C)[C@H](NC(=O)[C@H](CC(N)=O)NC(=O)[C@H](Cc1ccccc1)NC(=O)[C@H](CCSC)NC(=O)[C@@H](N)CC(N)=O)C(=O)N[C@@H](CO)C(=O)N[C@@H](Cc1ccccc1)C(=O)N[C@@H](CCCNC(=N)N)C(=O)N[C@@H](Cc1ccccc1)C(=O)O` [3102.0348] (H-NMFNISFRF-OH) as the compound, how does the pIC50 [1] read?
A: 7.37

Q: What about the pIC50 [2] of the same compound?
A: 7.72

Q: What about the pIC50 [3] of the same compound?
A: 7.57

Q: What about the pIC50 [4] of the same compound?
A: 8.44

Q: `CC[C@H](C)[C@H](N)C(=O)N[C@@H](C)C(=O)N[C@@H](CO)C(=O)N[C@H](C(=O)N[C@@H](CC(C)C)C(=O)N[C@H](C(=O)N[C@H](C(=O)N[C@H](C(=O)N[C@H](C(=O)O)[C@@H](C)CC)[C@@H](C)O)C(C)C)[C@@H](C)CC)[C@@H](C)O` [3102.0358] (H-IASTLIVTI-OH) was tested. Which pIC50 [1] did it give?
A: 6.81

Q: What about the pIC50 [3] of the same compound?
A: 8.00

Q: And the pIC50 [4]?
A: 7.13

Q: How did the pIC50 [1] turn out when `CC[C@H](C)[C@H](NC(=O)[C@@H](NC(=O)[C@@H](NC(=O)[C@@H]1CCCN1C(=O)[C@H](CCCNC(=N)N)NC(=O)[C@H](Cc1ccccc1)NC(=O)[C@H](Cc1ccccc1)NC(=O)[C@@H](NC(=O)[C@@H](N)CCCCN)[C@@H](C)CC)[C@@H](C)O)[C@@H](C)O)C(=O)O` [3102.0470] (H-KIFFRPTTI-OH) was run?
A: 7.03

Q: And the pIC50 [3]?
A: 7.77

Q: And the pIC50 [4]?
A: 8.96

Q: With `CC(C)C[C@H](NC(=O)[C@H](CO)NC(=O)[C@H](Cc1ccccc1)NC(=O)[C@@H]1CCCN1C(=O)[C@H](CCCNC(=N)N)NC(=O)[C@H](CCCNC(=N)N)NC(=O)[C@H](CC(C)C)NC(=O)[C@H](CC(C)C)NC(=O)[C@@H](N)CCCCN)C(=O)O` [3102.0529] (H-KLLRRPFSL-OH) as the compound, how does the pIC50 [5] read?
A: 9.44

Q: How did the pIC50 [5] turn out when `CC(C)C[C@H](NC(=O)[C@H](CCCCN)NC(=O)[C@H](CCCNC(=N)N)NC(=O)[C@@H](N)CCCNC(=N)N)C(=O)N[C@@H](CC(C)C)C(=O)N[C@@H](CCCNC(=N)N)C(=O)N[C@@H](CCCNC(=N)N)C(=O)N1CCC[C@H]1C(=O)N[C@@H](Cc1ccccc1)C(=O)O` [3102.0530] (H-RRKLLRRPF-OH) was run?
A: 7.96

Q: How did the pIC50 [5] turn out when `CC[C@H](C)[C@H](NC(=O)[C@@H](NC(=O)[C@H](CC(N)=O)NC(=O)[C@H](CCCCN)NC(=O)[C@H](CCCNC(=N)N)NC(=O)[C@@H](NC(=O)[C@H](Cc1ccccc1)NC(=O)[C@H](CC(C)C)NC(=O)[C@@H](N)Cc1ccc(O)cc1)[C@@H](C)CC)C(C)C)C(=O)O` [3102.0531] (H-YLFIRKNVI-OH) was run?
A: 9.15

Q: With `CC[C@H](C)[C@H](NC(=O)CNC(=O)[C@@H]1CCCN1C(=O)[C@@H](N)CO)C(=O)N[C@@H](CCCNC(=N)N)C(=O)N1CCC[C@H]1C(=O)N[C@@H](CCCNC(=N)N)C(=O)N[C@@H](Cc1ccccc1)C(=O)N[C@@H](CC(C)C)C(=O)O` [3102.0532] (H-SPGIRPRFL-OH) as the compound, how does the pIC50 [5] read?
A: 7.25

Q: With `CC[C@H](C)[C@H](NC(=O)[C@@H](N)CO)C(=O)N[C@@H](CCCCN)C(=O)N[C@@H](CO)C(=O)N[C@@H](CCCCN)C(=O)N[C@@H](CO)C(=O)N[C@@H](CCCNC(=N)N)C(=O)N[C@@H](CCCNC(=N)N)C(=O)N[C@@H](CC(C)C)C(=O)O` [3102.0534] (H-SIKSKSRRL-OH) as the compound, how does the pIC50 [5] read?
A: 7.52

Q: How did the pIC50 [5] turn out when `CC[C@H](C)[C@H](NC(=O)[C@H](CCCCN)NC(=O)[C@@H](NC(=O)[C@H](CCCNC(=N)N)NC(=O)[C@H](CC(C)C)NC(=O)[C@H](CC(N)=O)NC(=O)[C@H](CC(C)C)NC(=O)[C@@H](N)CO)[C@@H](C)CC)C(=O)N[C@@H](CC(C)C)C(=O)O` [3102.0536] (H-SLNLRIKIL-OH) was run?
A: 7.04

Q: How did the pIC50 [5] turn out when `CC[C@H](C)[C@H](N)C(=O)N[C@@H](CC(C)C)C(=O)N[C@@H](CCCNC(=N)N)C(=O)N[C@@H](CCCCN)C(=O)N[C@H](C(=O)N[C@@H](Cc1ccccc1)C(=O)N[C@@H](Cc1ccc(O)cc1)C(=O)N[C@@H](CO)C(=O)N[C@H](C(=O)O)C(C)C)[C@@H](C)CC` [3102.0538] (H-ILRKIFYSV-OH) was run?
A: 10.00

Q: How did the pIC50 [5] turn out when `CC[C@H](C)[C@H](NC(=O)[C@H](Cc1ccc(O)cc1)NC(=O)[C@H](CCSC)NC(=O)[C@H](CC(C)C)NC(=O)[C@@H](N)CCC(=O)O)C(=O)N[C@@H](Cc1ccccc1)C(=O)N[C@@H](C)C(=O)N[C@@H](C)C(=O)N[C@@H](CC(C)C)C(=O)O` [3102.0539] (H-ELMYIFAAL-OH) was run?
A: 7.52

Q: With `CC[C@H](C)[C@H](NC(=O)[C@H](CO)NC(=O)[C@H](CC(C)C)NC(=O)[C@H](CCSC)NC(=O)[C@H](CO)NC(=O)[C@H](CCCNC(=N)N)NC(=O)[C@@H]1CCCN1C(=O)[C@@H](N)Cc1ccccc1)C(=O)N[C@@H](Cc1ccccc1)C(=O)O` [3102.0543] (H-FPRSMLSIF-OH) as the compound, how does the pIC50 [5] read?
A: 8.00

Q: With `CSCC[C@H](N)C(=O)N[C@@H](CCCNC(=N)N)C(=O)N[C@@H](Cc1ccccc1)C(=O)N[C@@H](CCCCN)C(=O)N[C@@H](CCCCN)C(=O)N[C@@H](CCC(=O)O)C(=O)N[C@@H](CO)C(=O)N[C@@H](CO)C(=O)N[C@@H](CC(C)C)C(=O)O` [3102.0545] (H-MRFKKESSL-OH) as the compound, how does the pIC50 [5] read?
A: 8.47

Q: `CC[C@H](C)[C@H](NC(=O)[C@H](CO)NC(=O)[C@H](CC(C)C)NC(=O)[C@H](CC(C)C)NC(=O)[C@H](CCCNC(=N)N)NC(=O)[C@H](CCSC)NC(=O)[C@H](CCC(=O)O)NC(=O)[C@H](C)NC(=O)[C@@H](N)CO)C(=O)O` [3102.0547] (H-SAEMRLLSI-OH) was tested. Which pIC50 [5] did it give?
A: 7.68

Q: How did the pIC50 [5] turn out when `CC(C)C[C@H](NC(=O)[C@H](CC(N)=O)NC(=O)[C@H](Cc1ccc(O)cc1)NC(=O)[C@H](Cc1ccccc1)NC(=O)[C@H](Cc1c[nH]cn1)NC(=O)[C@H](CC(=O)O)NC(=O)[C@H](CCCNC(=N)N)NC(=O)[C@H](CC(C)C)NC(=O)[C@@H](N)Cc1ccc(O)cc1)C(=O)O` [3102.0548] (H-YLRDHFYNL-OH) was run?
A: 8.08

Q: With `CC[C@H](C)[C@H](NC(=O)CNC(=O)[C@H](Cc1c[nH]cn1)NC(=O)[C@H](CCCNC(=N)N)NC(=O)[C@H](CCC(N)=O)NC(=O)[C@H](CC(C)C)NC(=O)[C@H](CCCCN)NC(=O)[C@@H](N)CO)C(=O)N[C@@H](CC(C)C)C(=O)O` [3102.0549] (H-SKLQRHGIL-OH) as the compound, how does the pIC50 [5] read?
A: 7.80

Q: With `CC[C@H](C)[C@H](NC(=O)[C@@H](N)CO)C(=O)N[C@@H](Cc1c[nH]cn1)C(=O)N[C@@H](CCC(=O)O)C(=O)N[C@@H](CCCCN)C(=O)N[C@@H](Cc1ccccc1)C(=O)N[C@@H](Cc1c[nH]c2ccccc12)C(=O)N1CCC[C@H]1C(=O)N[C@@H](CC(C)C)C(=O)O` [3102.0550] (H-SIHEKFWPL-OH) as the compound, how does the pIC50 [5] read?
A: 8.85

Q: How did the pIC50 [5] turn out when `CC[C@H](C)[C@H](NC(=O)[C@H](Cc1ccc(O)cc1)NC(=O)[C@H](C)NC(=O)[C@@H]1CCCN1C(=O)[C@@H](N)CCSC)C(=O)N[C@@H](CCCNC(=N)N)C(=O)N[C@@H](CC(N)=O)C(=O)N[C@H](C(=O)N[C@@H](CC(C)C)C(=O)O)[C@@H](C)O` [3102.0553] was run?
A: 8.85

Q: `CC(C)[C@H](NC(=O)[C@H](Cc1ccccc1)NC(=O)[C@H](CS)NC(=O)[C@@H](NC(=O)[C@H](CCCCN)NC(=O)[C@H](CCCCN)NC(=O)[C@H](CCCCN)NC(=O)[C@H](CO)NC(=O)[C@@H](N)Cc1ccccc1)C(C)C)C(=O)O` [3102.0556] (H-FSKKKVCFV-OH) was tested. Which pIC50 [5] did it give?
A: 8.22

Q: `CSCC[C@H](NC(=O)[C@H](C)NC(=O)[C@@H](NC(=O)[C@@H](N)C(C)C)C(C)C)C(=O)N[C@@H](CCCNC(=N)N)C(=O)N[C@@H](Cc1c[nH]cn1)C(=O)N[C@@H](CC(C)C)C(=O)N[C@@H](CO)C(=O)N[C@@H](CC(C)C)C(=O)O` [3102.0557] (H-VVAMRHLSL-OH) was tested. Which pIC50 [5] did it give?
A: 9.01

Q: With `CC[C@H](C)[C@H](NC(=O)[C@H](CCCNC(=N)N)NC(=O)[C@H](CCCCN)NC(=O)[C@H](CCSC)NC(=O)[C@@H](NC(=O)[C@@H](N)CC(N)=O)C(C)C)C(=O)N[C@@H](CC(N)=O)C(=O)N[C@@H](CS)C(=O)N[C@@H](Cc1ccccc1)C(=O)O` [3102.0558] (H-NVMKRINCF-OH) as the compound, how does the pIC50 [5] read?
A: 7.70

Q: How did the pIC50 [5] turn out when `CC[C@H](C)[C@H](NC(=O)[C@H](Cc1ccccc1)NC(=O)[C@H](Cc1ccccc1)NC(=O)[C@@H](N)CCSC)C(=O)N[C@@H](CCCNC(=N)N)C(=O)N[C@@H](Cc1ccccc1)C(=O)NCC(=O)N[C@@H](CCCCN)C(=O)N[C@@H](CCSC)C(=O)O` [3102.0559] (H-MFFIRFGKM-OH) was run?
A: 7.49

Q: How did the pIC50 [5] turn out when `CSCC[C@H](NC(=O)[C@H](C)NC(=O)[C@H](CC(C)C)NC(=O)[C@H](CO)NC(=O)[C@H](CCCCN)NC(=O)[C@H](CCSC)NC(=O)[C@H](CCCNC(=N)N)NC(=O)[C@H](CCCCN)NC(=O)[C@@H](N)CC(=O)O)C(=O)O` [3102.0560] (H-DKRMKSLAM-OH) was run?
A: 8.00

Q: How did the pIC50 [5] turn out when `CC[C@H](C)[C@H](NC(=O)[C@H](C)NC(=O)[C@H](CC(C)C)NC(=O)[C@@H](NC(=O)[C@H](CCCCN)NC(=O)[C@H](CCCNC(=N)N)NC(=O)[C@H](CCCCN)NC(=O)[C@H](CC(N)=O)NC(=O)[C@@H](N)CO)C(C)C)C(=O)O` [3102.0561] (H-SNKRKVLAI-OH) was run?
A: 8.72

Q: How did the pIC50 [5] turn out when `CC(C)C[C@H](NC(=O)[C@H](CS)NC(=O)[C@H](CCC(=O)O)NC(=O)[C@H](CCCCN)NC(=O)[C@H](Cc1c[nH]cn1)NC(=O)[C@H](CC(C)C)NC(=O)[C@H](CCCNC(=N)N)NC(=O)[C@H](CC(N)=O)NC(=O)[C@@H](N)CCC(=O)O)C(=O)O` [3102.0562] (H-ENRLHKECL-OH) was run?
A: 7.14
